The test system of one assay is C81 xenograft tumors. As to the kind of experiment: C81 mouse xenograft tumor study. The format is in vivo. As for the experimental part:
2×10^6 C81 cells in 50 µL of growth medium was mixed with 50 µL Matrigel (BD Biosciences) and injected into both flanks of 4–6-week old SCID male mice. When tumor sizes reached 200 mm^3, 50 µL of Peptide A-8R (40 mg Peptide A-8R/Kg of animal) or Vehicle (DMSO) was directly injected into the tumors every other day. Injections were stopped after 5 times and tumors were measured every 3 days. Mice were euthanized after 3 weeks and tumors were excised. All procedures were approved by the University of Toledo Division of Lab Animal Recourses (DLAR). Protein extracts were prepared by boiling the tumor tissue in 3× SDS buffer, and evaluated by SDS-PAGE gel.
This study was carried out in strict accordance with the recommendations in the Guide for the Care and Use of Laboratory Animals of the National Institutes of Health. The protocol was approved by the Institutional Animal Care and Use Committee of the University of Toledo (Protocol Number: 106418). During the experiments all animals were monitored daily for morbidity and all efforts were made to minimize suffering. At the end of the study all animals were euthanized using inhalation of carbon dioxide, after which surgery was performed to excise tumors from all animals.
(A) Mouse xenograft tumors derived from C81 cells were treated with Vehicle or Peptide A-8R, after which they were allowed to grow for an additional three weeks without treatment. Data points represent average tumor size of three animals for each treatment plus standard deviations. Note that there is a statistical difference (P<0.00004) in average tumor size for each day of tumor measurement. Arrow represents day of last injection of Vehicle or Peptide A-8R. […] Bar graphs represent averages of each set of three tumors plus standard deviations. Asterisks indicate statistical significance (P<0.02). (C) Two tumors, one on each flank of the same animal, were treated with either Vehicle or Peptide A-8R.

Another assay relates to p15, p21, CDK6. As to the kind of experiment: Expression of cell-cycle regulatory proteins (Western blot), C81 cells. The class given is cell-based. As to conditions: 25 µM, Fig. S7. As for the experimental part:
Western blotting was performed as described using primary antibodies against sGCα1 (Cayman Chemical), pan-Akt (Cell Signaling Technology), phospho-AKT (S473, T308) (Cell Signaling Technology), phospho-PDK1 (Cell Signaling Technology), phospho-GSK-3β (Cell Signaling Technology), PARP (Cell Signaling Technology), and β-Actin (Abcam).
Supplementary file pone.0064189.s007.tif: Figure S7 Peptide A-8R induces expression of p15 and p21 in prostate cancer cells. C81 cells treated with 25 µM Peptide A-8R or Peptide C-8R for different times, as shown, monitored for expression of p15, p21, and CDK6 by Western blotting (antibodies from Cell Signaling Technology). Note that β-actin was used to control for protein loading. (TIF) Click here for additional data file.
For orientation: In western blotting, separated proteins are transferred to a membrane and probed.

Another assay has as its target T1, sGCα1 (Homo sapiens, UniProt Q02108).
T1 sequence (Q02108 1-690): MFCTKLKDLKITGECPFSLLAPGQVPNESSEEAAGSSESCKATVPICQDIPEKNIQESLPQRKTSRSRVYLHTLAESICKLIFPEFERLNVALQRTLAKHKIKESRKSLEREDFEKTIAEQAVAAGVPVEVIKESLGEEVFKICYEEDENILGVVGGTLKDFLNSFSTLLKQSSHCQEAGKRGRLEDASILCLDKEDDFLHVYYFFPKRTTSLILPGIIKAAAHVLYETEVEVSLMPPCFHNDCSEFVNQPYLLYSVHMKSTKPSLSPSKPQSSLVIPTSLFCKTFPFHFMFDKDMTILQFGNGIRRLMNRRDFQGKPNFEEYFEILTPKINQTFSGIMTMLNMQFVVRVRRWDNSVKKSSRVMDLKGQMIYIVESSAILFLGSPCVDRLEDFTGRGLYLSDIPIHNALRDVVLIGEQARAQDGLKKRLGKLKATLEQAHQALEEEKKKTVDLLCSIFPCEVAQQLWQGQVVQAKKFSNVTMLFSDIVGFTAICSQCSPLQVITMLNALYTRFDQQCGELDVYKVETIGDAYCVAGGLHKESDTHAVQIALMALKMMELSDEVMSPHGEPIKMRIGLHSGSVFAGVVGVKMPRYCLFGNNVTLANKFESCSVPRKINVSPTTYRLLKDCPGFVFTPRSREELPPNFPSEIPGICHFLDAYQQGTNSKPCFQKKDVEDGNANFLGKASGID
As to the kind of experiment: Immunocytochemistry co-localization in LNCaP cells. The format is cell-based. As to conditions: 25 µM Biotin-labeled Peptide A-8R, 2 hrs, Fig. 2A. As for the experimental part:
Immunocytochemistry was used to study the subcellular localization of sGCα1 and Biotin-labeled Peptide-8R in LNCaP cells. FITC-labeled anti-sGCα1 antibody (1∶100 dilution; Santa Cruz Biotechnology), anti-Biotin antibody (1∶200; Santa Cruz Biotechnology) were used for immunocytochemisty as described.
Figure 2 Peptide A-8R interacts with sGCα1 in prostate cancer cells. (A) LNCaP cells were treated with 25 µM Biotin-labeled Peptide A-8R for 2 hrs and subjected to immunocytochemistry using anti-sGCα1 or anti-Biotin antibody to measure subcellular co-localization of endogenous sGCα1 and Peptide A-8R. DAPI was used to stain nuclei. (B) LNCaP cytosolic extracts were incubated with Peptide A-8R-Biotin and subjected to purification using streptavidin-agarose. This pull-down experiment was repeated with competing excess amount of unlabeled Peptide C-8R or Peptide A-8R. In both cases Western blotting was used to measure the co-purification of sGCα1. (C) LNCaP cell extract was incubated with different concentrations of Peptide A-8R-FITC and endogenous sGCα1 was immunoprecipitated. Co-purified Peptide A-8R-FITC was quantified by measuring fluorescence signal emission. Nonlinear regression analysis was used to determine an affinity for Peptide A-8R binding to sGCα1. […] Cell number was measured after 0–48 hrs of incubation. […]

The subject of a further assay is LNCaP cells. As to the kind of experiment: AKT over-expression (adenovirus) rescue of Peptide A-8R-treated cells. As to conditions: 10- 50 µM Peptide A-8R; 10% serum; 0–6 days; Fig. S4D. The format is cell-based.

Entries after “also recorded” stand apart in the source; their conditions may differ. Where no end group is shown, it is not given here.

Take Ac-TFCKAFPFHIIRRRRRRRR [Peptide A-8R]: the “tumor growth during five injections, C81 xenograft” value in the assay with C81 xenograft tumors (40 mg/Kg intratumoral, every other day, 5 times, Fig. 6A, 6B, three animals per treatment, P<0.00004) was “stopped tumor growth and actually caused some tumor regression during the five injections of peptide”. Moreover, the “anti-tumor activity, C81 xenograft (summary)” value with C81 xenograft tumors (intra-tumoral injection) is reported as “able to stop tumor growth; also recorded: blocks the growth of castration-resistant prostate tumors; also recorded: strong anti-cancer activity”. In addition, in the assay with C81 xenograft tumors (three weeks after last injection, Vehicle tumors grew more than three-fold, Fig. 6A), the “tumor growth three weeks after treatment stopped, C81 xenograft” value is “did not grow at all three weeks after Peptide treatment was stopped”. Further, in the assay on C81 xenograft tumors (two tumors, one per flank of same mouse, Fig. 6C), the “tumor size in same animal, Peptide- vs Vehicle-treated flank” value is “markedly smaller than the Vehicle-treated tumor”. Further, in the assay on p15, p21, CDK6, the “expression of CDK6” value is given as “unchanged”; the “expression of p15 and p21” value is on record as “expression increased”. The “co-localization with sGCα1” value at sGCα1 was “colocalizes with sGCα1 only in the cytoplasm of LNCaP cells”. In the assay with LNCaP cells, the “rescue by adenovirus-expressed AKT” value is “unable to rescue”.

Source of the values: publication PMC3664642, “A Peptide against Soluble Guanylyl Cyclase α1: A New Approach to Treating Prostate Cancer” (PLoS ONE, 2013).
